Reference: the supplement of paper PMC10307832

Columns and labels:
Experiment in all cases: relative viability (nuclei count vs DMSO), 5 days (fraction); higher = more cells survive
KIN001-266 + Bortezomib = compound: CCN1CCC(CC1)N2C=C(N=N2)CNC3=CC4=C(C(=CN=C4C(=C3)Cl)C#N)NC5=CC(=C(C=C5)F)Cl [KIN001-266] + CC(C)C[C@H](NC(=O)[C@H](Cc1ccccc1)NC(=O)c1cnccn1)B(O)O [Bortezomib] (partner 0.002 µM)
Summary of the method: (§1)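 Each reported value is a median over duplicate plates. It expresses relative viability: treated-well nuclei count divided by vehicle-well nuclei count. Lung cancer cell lines in 1536-well plates were dosed by pin tool a day after seeding, alone with one drug or with a fixed anchor-drug dose plus five library-drug doses (not always all listed) in √10 steps, and nuclei were counted after 5 days.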

KIN001-266 + Pemetrexed = compound: CCN1CCC(CC1)N2C=C(N=N2)CNC3=CC4=C(C(=CN=C4C(=C3)Cl)C#N)NC5=CC(=C(C=C5)F)Cl [KIN001-266] + Nc1nc2[nH]cc(CCc3ccc(C(=O)N[C@@H](CCC(=O)O)C(=O)O)cc3)c2c(=O)[nH]1 [Pemetrexed] (partner 0.2 µM)
Summary of the method: as §1

KIN001-266 + Alpelisib = compound: CCN1CCC(CC1)N2C=C(N=N2)CNC3=CC4=C(C(=CN=C4C(=C3)Cl)C#N)NC5=CC(=C(C=C5)F)Cl [KIN001-266] + Cc1nc(NC(=O)N2CCC[C@H]2C(N)=O)sc1-c1ccnc(C(C)(C)C(F)(F)F)c1 [Alpelisib] (partner 2 µM)
Summary of the method: as §1

KIN001-266 + Olaparib = compound: CCN1CCC(CC1)N2C=C(N=N2)CNC3=CC4=C(C(=CN=C4C(=C3)Cl)C#N)NC5=CC(=C(C=C5)F)Cl [KIN001-266] + O=C(c1cc(Cc2n[nH]c(=O)c3ccccc23)ccc1F)N1CCN(C(=O)C2CC2)CC1 [Olaparib] (partner 8 µM)
Summary of the method: as §1

Row | Cell Line | relative viability (KIN001-266 + Bortezomib; first compound 0.08 µM) | relative viability (KIN001-266 + Bortezomib; first compound 0.253 µM) | relative viability (KIN001-266 + Bortezomib; first compound 0.8 µM) | relative viability (KIN001-266 + Bortezomib; first compound 2.53 µM) | relative viability (KIN001-266 + Bortezomib; first compound 8 µM) | relative viability (KIN001-266 + Pemetrexed; first compound 0.08 µM) | relative viability (KIN001-266 + Pemetrexed; first compound 0.253 µM) | relative viability (KIN001-266 + Pemetrexed; first compound 0.8 µM) | relative viability (KIN001-266 + Pemetrexed; first compound 2.53 µM) | relative viability (KIN001-266 + Pemetrexed; first compound 8 µM) | relative viability (KIN001-266 + Alpelisib; first compound 0.08 µM) | relative viability (KIN001-266 + Alpelisib; first compound 0.253 µM) | relative viability (KIN001-266 + Alpelisib; first compound 0.8 µM) | relative viability (KIN001-266 + Alpelisib; first compound 2.53 µM) | relative viability (KIN001-266 + Alpelisib; first compound 8 µM) | relative viability (KIN001-266 + Olaparib; first compound 0.08 µM) | relative viability (KIN001-266 + Olaparib; first compound 0.253 µM) | relative viability (KIN001-266 + Olaparib; first compound 0.8 µM) | relative viability (KIN001-266 + Olaparib; first compound 2.53 µM) | relative viability (KIN001-266 + Olaparib; first compound 8 µM)
1 | 201T | 1.09 | 0.941 | 1.08 | 1.06 | 1.16 | 0.342 | 0.375 | 0.352 | 0.34 | 0.319 | 1.03 | 1 | 1.02 | 1.05 | 1.01 | 0.822 | 0.852 | 0.809 | 0.855 | 0.816
2 | A549 |  |  |  |  |  |  |  |  |  |  | 1.01 | 0.782 | 0.898 | 0.758 | 0.701 | 0.367 | 0.279 | 0.297 | 0.347 | 0.305
3 | A-427 | 1.06 | 1 | 0.955 | 0.982 | 0.817 | 1.01 | 0.96 | 1.04 | 0.881 | 0.95 | 1.12 | 1.05 | 1.04 | 1.02 | 0.998 | 0.723 | 0.789 | 0.726 | 0.615 | 0.639
4 | ABC-1 | 0.269 | 0.344 | 0.346 | 0.288 | 0.274 |  |  |  |  |  | 1.23 | 1.08 | 1.09 | 0.812 | 0.976 | 0.737 | 0.583 | 0.767 | 0.795 | 0.863
5 | BEN | 0.899 | 0.698 | 0.885 | 0.909 | 0.921 | 0.982 | 0.776 | 0.919 | 0.68 | 0.744 | 0.841 | 1.08 | 1.03 | 0.997 | 0.916 | 1 | 0.988 | 1.12 | 1.17 | 0.977
6 | CAL-12T | 1.04 | 0.976 |  | 1.12 | 0.97 | 1.25 | 1.1 | 1.15 | 1.2 | 1.15 | 1.43 | 1.39 | 1.11 | 1.3 | 1.02 | 0.785 | 0.732 | 0.663 | 0.652 | 0.633
7 | COR-L23 | 0.966 | 0.994 | 0.927 | 0.857 | 0.777 | 0.204 | 0.219 | 0.206 | 0.191 | 0.209 | 0.735 | 0.804 | 0.814 | 0.736 | 0.404 | 0.372 | 0.367 | 0.345 | 0.293 | 0.294
8 | COR-L 105 | 0.886 | 0.884 | 0.719 | 0.768 | 0.602 | 1.13 | 1.06 | 0.883 | 1.11 | 1.07 | 1.15 | 0.859 | 1.14 | 0.9 | 0.896 | 0.729 | 0.619 | 0.651 | 0.521 | 0.566
9 | Calu-6 | 1.11 | 1.11 | 1.05 | 0.948 | 0.682 |  |  |  |  |  | 1.16 | 0.915 | 1.1 | 0.915 | 0.86 | 0.649 | 0.653 | 0.587 | 0.542 | 0.365
10 | ChaGo-K-1 | 1.11 | 1.17 |  | 1.09 | 1.1 | 0.264 | 0.268 | 0.255 | 0.25 | 0.237 |  |  |  |  |  | 0.401 | 0.422 | 0.301 | 0.282 | 0.227
11 | EBC-1 | 0.566 | 0.502 | 0.477 | 0.446 | 0.364 |  |  |  |  |  | 0.929 | 0.879 | 0.822 | 0.843 | 0.629 | 0.76 | 0.72 | 0.635 | 0.649 | 0.511
12 | EKVX | 1.12 | 1 | 1.01 | 1.06 | 1.01 | 0.295 | 0.432 | 0.406 | 0.391 | 0.375 | 0.871 | 0.817 | 0.83 | 0.807 | 0.877 | 0.914 | 0.899 | 0.844 | 0.78 | 0.865
13 | EMC-BAC-2 | 1.07 | 1.11 | 1.02 | 1.04 | 1.04 | 0.505 | 0.504 | 0.449 | 0.462 | 0.529 | 0.718 | 0.751 | 0.749 | 0.743 | 0.733 | 0.546 | 0.519 | 0.449 | 0.437 | 0.46
14 | EPLC-272H | 1.19 | 0.949 | 0.751 | 0.839 | 0.605 | 0.373 | 0.364 | 0.374 | 0.319 | 0.323 | 1.05 | 0.874 | 0.938 | 0.842 | 0.74 | 0.885 | 0.869 | 1.08 | 0.643 | 0.273
15 | H3255 | 0.899 | 0.775 | 0.838 | 0.788 | 0.699 | 0.55 | 0.585 | 0.5 | 0.506 | 0.505 | 0.685 | 0.737 | 0.756 | 0.785 | 0.475 | 0.583 | 0.55 | 0.565 | 0.517 | 0.455
16 | HARA | 1.07 | 1.09 | 1.16 | 1.07 | 1.04 | 0.289 | 0.276 | 0.256 | 0.242 | 0.206 | 0.771 | 0.77 | 0.835 | 0.847 | 0.59 | 0.798 | 0.762 | 0.806 | 0.559 | 0.467
17 | HCC-15 | 1.01 | 1.04 | 0.868 | 0.864 | 0.662 | 0.234 | 0.222 | 0.221 | 0.206 | 0.225 | 0.867 | 0.849 | 0.766 | 0.781 | 0.586 | 0.743 | 0.747 | 0.64 | 0.651 | 0.511
